System: primary human fibroblasts derived from IPF patients (LL29 cells)
Assay: Inhibition of the fibrotic process: αSMA staining in TGF-β1 treated fibroblasts
Format: cell-based
Details: Fibroblast; for EC50: 96 h, LL29 cells, TGF-β1 20 ng/mL, 4 days, % αSMA positive cells; for inhibition at 10 µM: given where EC50 >10 μM, LL29, αSMA, read-out: percent inhibition at 10 μM
Description: Representative compounds were screened using primary human fibroblasts (derived from IPF patients) treated with TGF-β1 to determine their ability to inhibit the fibrotic process.
Human Fibroblast Cell Culture: Primary human fibroblasts derived from IPF patients (LL29 cells) [^1Xiaoqiu Liu, et. al., “Fibrotic Lung Fibroblasts Show Blunted Inhibition by cAMP Due to Deficient cAMP Response Element-Binding Protein Phosphorylation”, Journal of Pharmacology and Experimental Therapeutics (2005), 315(2), 678-687; ^2Watts, K. L., et. al., “RhoA signaling modulates cyclin D1 expression in human lung fibroblasts; implications for idiopathic pulmonary fibrosis”, Respiratory Research (2006), 7(1), 88] were obtained from American Type Culture Collection (ATCC) and expanded in F12 medium supplemented with 15% Fetal Bovine Serum and Penicillin/Streptomycin.
Compound Screening: Each compound was dissolved in DMSO as a 10 mM stock and used to prepare compound source plates. Serial dilution (1:2, 11-point dose-response curves from 10 μM to […]) and compound transfer was performed using the ECHO 550 (Labcyte, Sunnyvale, Calif.) into 384-well clear bottom assay plates (Greiner Bio-One) with appropriate DMSO backfill for a final DMSO concentration of 0.1%. LL29 cells are plated at 1,500 cells/well in 80 μL/well F12 medium supplemented with 1% Fetal Bovine Serum. One hour after addition of the cells, TGF-β1 (Peprotech; 20 ng/mL) was added to the plates to induce fibrosis (ref. 1 and 2 above). Wells treated with TGF-β1 and containing DMSO were used as controls. Cells were incubated at 37° C. and 5% CO2 for 4 days. Following incubation for 4 days, SYTOX green nucleic acid stain (Life Technologies [Thermo Fisher Scientific]) was added to the wells at a final concentration of 1 μM and incubated at room temperature for 30 min. Cells were then fixed using 4% formaldehyde (Electron Microscopy Sciences), washed 3 times with PBS followed by blocking and permeabilization using 3% Bovine Serum Albumin (BSA; Sigma) and 0.3% Triton X-100 (Sigma) in PBS. Cells were then stained with antibody specific to α-smooth muscle actin (αSMA; Abcam) (ref. 1 and 2 above) in 3% Bovine Serum Albumin (BSA; Sigma) and 0.3% Triton X-100 (Sigma) in PBS, and incubated overnight at 4° C. Cells were then washed 3 times with PBS, followed by incubation with Alexa Flor-647 conjugated secondary antibody (Life Technologies [Thermo Fisher Scientific]) and DAPI at room temperature for 1 hour. Cells were then washed 3 times with PBS and plates were sealed for imaging. αSMA staining was imaged by excitation at 630 nm and emission at 665 nm and quantified using the Compartmental Analysis program on the CellInsight CX5 (Thermo Scientific). Dead or apoptotic cells were excluded from analysis based on positive SYTOX green staining. % of total cells positive for αSMA were counted in each well and normalized to the average of 11 wells treated with TGF-β1 on the same plate using Dotmatics' Studies Software. The normalized averages (fold change over untreated) of 3 replicate wells for each compound concentration were used to create dose-responses curves and EC50 values were calculated using non-linear regression curve fit in the Dotmatics' Studies Software. For EC50 of >10 μM, the percent inhibition at 10 μM is provided.

| SMILES | EC50 | inhibition at 10 µM |
| --- | --- | --- |
| Fc1cccc(-c2ccnc3[nH]c(-c4n[nH]c5ccc(-c6cccnc6)nc45)cc23)c1 [Compound 4, 3-(4-(3-Fluorophenyl)-1H-pyrrolo[2,3-b]pyridin-2-yl)-5-(pyridin-3-yl)-1H-pyrazolo[4,3-b]pyridine] | 144 nM |  |
| CC(C)(C)C(=O)Nc1cncc(-c2ccc3[nH]nc(-c4cc5c(-c6cccc(F)c6)ccnc5[nH]4)c3n2)c1 [Compound 8, N-(5-(3-(4-(3-Fluorophenyl)-1H-pyrrolo[2,3-b]pyridin-2-yl)-1H-pyrazolo [4,3-b]pyridin-5-yl)pyridin-3-yl)pivalamide] | 1100 nM |  |
| Cc1ccncc1-c1ccc2[nH]nc(-c3cc4c(-c5ccc(F)cc5)ccnc4[nH]3)c2n1 [Compound 33, 3-(4-(4-Fluorophenyl)-1H-pyrrolo[2,3-b]pyridin-2-yl)-5-(4-methylpyridin-3-yl)-1H-pyrazolo[4,3-b]pyridine] | > 10000 nM | 2.9% |
| O=C(Nc1cncc(-c2ccc3[nH]nc(-c4cc5c(-c6ccc(F)cc6)ccnc5[nH]4)c3n2)c1)c1ccccc1 [Compound 39, N-(5-(3-(4-(4-Fluorophenyl)-1H-pyrrolo[2,3-b]pyridin-2-yl)-1H-pyrazolo [4,3-b]pyridin-5-yl)pyridin-3-yl)benzamide] | 7790 nM |  |
| Fc1ccc(-c2ccnc3[nH]c(-c4n[nH]c5ccc(-c6cncc(CN7CCC(F)(F)C7)c6)nc45)cc23)cc1 [Compound 54, 5-(5-((3,3-Difluoropyrrolidin-1-yl)methyl)pyridin-3-yl)-3-(4-(4-fluorophenyl)-1H-pyrrolo[2,3-b]pyridin-2-yl)-1H-pyrazolo[4,3-b]pyridine] | 374 nM |  |
| Fc1ccc(-c2ccnc3[nH]c(-c4n[nH]c5ccc(-c6cncnc6)nc45)cc23)cc1 [Compound 55, 3-(4-(4-Fluorophenyl)-1H-pyrrolo[2,3-b]pyridin-2-yl)-5-(pyrimidin-5-yl)-1H-pyrazolo[4,3-b]pyridine] | > 10000 nM | 0% |
| CC(C)CC(=O)Nc1cncc(-c2ccc3[nH]nc(-c4cc5c(-c6ccccc6F)ccnc5[nH]4)c3n2)c1 [Compound 58, N-(5-(3-(4-(2-Fluorophenyl)-1H-pyrrolo[2,3-b]pyridin-2-yl)-1H-pyrazolo [4,3-b]pyridin-5-yl)pyridin-3-yl)-3-methylbutanamide] | > 10000 nM | 18.2% |
| O=C(Nc1cncc(-c2ccc3[nH]nc(-c4cc5c(-c6ccccc6F)ccnc5[nH]4)c3n2)c1)C1CC1 [Compound 76, N-(5-(3-(4-(2-Fluorophenyl)-1H-pyrrolo[2,3-b]pyridin-2-yl)-1H-pyrazolo [4,3-b]pyridin-5-yl)pyridin-3-yl)cyclopropanecarboxamide] | 5260 nM |  |
| Fc1ccccc1-c1ccnc2[nH]c(-c3n[nH]c4ccc(-c5cncc(CNCc6ccccc6)c5)nc34)cc12 [Compound 80, N-Benzyl-1-(5-(3-(4-(2-fluorophenyl)-1H-pyrrolo[2,3-b]pyridin-2-yl)-1H-pyrazolo[4,3-b]pyridin-5-yl)pyridin-3-yl)methanamine] | 1190 nM |  |
| Fc1ccccc1-c1ccnc2[nH]c(-c3n[nH]c4ccc(-c5ccccn5)nc34)cc12 [Compound 84, 3-(4-(2-Fluorophenyl)-1H-pyrrolo[2,3-b]pyridin-2-yl)-5-(pyridin-2-yl)-1H-pyrazolo[4,3-b]pyridine] | > 10000 nM | 0% |
| c1cncc(-c2ccnc3[nH]c(-c4n[nH]c5ccc(-c6ccncc6)nc45)cc23)c1 [Compound 102, 3-(4-(Pyridin-3-yl)-1H-pyrrolo[2,3-b]pyridin-2-yl)-5-(pyridin-4-yl)-1H-pyrazolo[4,3-b]pyridine] | > 10000 nM | 0% |
| c1cc(N2CCCCC2)c2cc(-c3n[nH]c4ccc(-c5cncc(CN6CCCCC6)c5)nc34)[nH]c2n1 [Compound 183, 3-(4-(Piperidin-1-yl)-1H-pyrrolo[2,3-b]pyridin-2-yl)-5-(5-(piperidin-1-ylmethyl)pyridin-3-yl)-1H-pyrazolo[4,3-b]pyridine] | > 10000 nM | 0% |
| c1ccc(-c2ccc3[nH]nc(-c4cc5c(N6CCCCC6)ccnc5[nH]4)c3n2)nc1 [Compound 196, 3-(4-(Piperidin-1-yl)-1H-pyrrolo[2,3-b]pyridin-2-yl)-5-(pyridin-2-yl)-1H-pyrazolo[4,3-b]pyridine] | 2050 nM |  |
| O=C(Nc1cncc(-c2ccc3[nH]nc(-c4cc5cccnc5[nH]4)c3n2)c1)C1CCCCC1 [Compound 275, N-(5-(3-(1H-Pyrrolo[2,3-b]pyridin-2-yl)-1H-pyrazolo[4,3-b]pyridin-5-yl)pyridin-3-yl)cyclohexanecarboxamide] | > 10000 nM | 0% |
| CN(C)c1cncc(-c2ccc3[nH]nc(-c4cc5c(-c6ccoc6)ccnc5[nH]4)c3n2)c1 [Compound 315, 5-(3-(4-(Furan-3-yl)-1H-pyrrolo[2,3-b]pyridin-2-yl)-1H-pyrazolo[4,3-b]pyridin-5-yl)-N,N-dimethylpyridin-3-amine] | 5520 nM |  |
| O=C(Cc1ccccc1)Nc1cncc(-c2ccc3[nH]nc(-c4cc5c(-c6ccoc6)ccnc5[nH]4)c3n2)c1 [Compound 318, N-(5-(3-(4-(Furan-3-yl)-1H-pyrrolo[2,3-b]pyridin-2-yl)-1H-pyrazolo[4,3-b]pyridin-5-yl)pyridin-3-yl)-2-phenylacetamide] | > 10000 nM | 25.7% |
| c1csc(-c2ccnc3[nH]c(-c4n[nH]c5ccc(-c6ccncc6)nc45)cc23)c1 [Compound 354, 5-(Pyridin-4-yl)-3-(4-(thiophen-2-yl)-1H-pyrrolo[2,3-b]pyridin-2-yl)-1H-pyrazolo[4,3-b]pyridine] | 2250 nM |  |
| c1csc(-c2ccnc3[nH]c(-c4n[nH]c5ccc(-c6cncnc6)nc45)cc23)c1 [Compound 363, 5-(Pyrimidin-5-yl)-3-(4-(thiophen-2-yl)-1H-pyrrolo[2,3-b]pyridin-2-yl)-1H-pyrazolo[4,3-b]pyridine] | 546 nM |  |
| Fc1cccc(-c2ccnc3[nH]c(-c4n[nH]c5ccc(-c6cncc(OCc7ccccc7)c6)nc45)cc23)c1 [Compound 518, 5-(5-(Benzyloxy)pyridin-3-yl)-3-(4-(3-fluorophenyl)-1H-pyrrolo[2,3-b]pyridin-2-yl)-1H-pyrazolo[4,3-b]pyridine] | 2450 nM |  |
| Oc1cncc(-c2ccc3[nH]nc(-c4cc5c(-c6ccc(F)cc6)ccnc5[nH]4)c3n2)c1 [Compound 533, 5-(3-(4-(4-Fluorophenyl)-1H-pyrrolo[2,3-b]pyridin-2-yl)-1H-pyrazolo[4,3-b]pyridin-5-yl)pyridin-3-ol] | > 10000 nM | 43% |
| c1cc(N2CCCCC2)c2cc(-c3n[nH]c4ccc(C5CCNCC5)nc34)[nH]c2n1 [Compound 601, 3-(4-(Piperidin-1-yl)-1H-pyrrolo[2,3-b]pyridin-2-yl)-5-(piperidin-4-yl)-1H-pyrazolo[4,3-b]pyridine] | > 10000 nM | 20.1% |
| Cn1cc(-c2ccc3[nH]nc(-c4cc5cccnc5[nH]4)c3n2)cn1 [Compound 652, 5-(1-Methyl-1H-pyrazol-4-yl)-3-(1H-pyrrolo[2,3-b]pyridin-2-yl)-1H-pyrazolo[4,3-b]pyridine] | 1210 nM |  |
| c1csc(-c2ccnc3[nH]c(-c4n[nH]c5ccc(-c6cncc(OC7CCCCC7)c6)nc45)cc23)c1 [Compound 703, 5-(5-(Cyclohexyloxy)pyridin-3-yl)-3-(4-(thiophen-2-yl)-1H-pyrrolo[2,3-b]pyridin-2-yl)-1H-pyrazolo[4,3-b]pyridine] | 1620 nM |  |
